From patent US9796711B2, “Substituted pyrazolo[3,4-b]pyridin-6-carboxylic acids and method of use” (AbbVie S.àr.l., priority 2015, dated 2017)

Experiments:
ΔF508-CFTR [1] = molecular target: T1, ΔF508-CFTR (Homo sapiens, UniProt P13569, DEL508-508); assay: CFTR cell surface levels using HRP-tagged ΔF508-CFTR expressing CFBE cells, intrinsic corrector capacity; assay type: cell-based; settings: HRP-tagged ΔF508-CFTR expressing CFBE cells, intrinsic corrector capacity (no co-corrector), 33° C., 20 hours; for EC50: read-out: EC50
T1 construct: host or cells: CFBE41o-, doxycycline-inducible
Method in brief: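 Here the cells express ΔF508-CFTR with horseradish peroxidase inserted in extracellular loop 4, so only rescued channel at the surface gives luminescent signal. Compounds act on their own, 20 h at the reduced temperature of 33 °C; values are percent activity relative to DMSO and a 3 μM corrector.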

ΔF508-CFTR [2] = molecular target: T1, ΔF508-CFTR; assay: CFTR cell surface levels using HRP-tagged ΔF508-CFTR expressing CFBE cells, in the presence of a co-corrector; assay type: cell-based; settings: HRP-tagged ΔF508-CFTR expressing CFBE cells, in the presence of 3 μM co-corrector; for EC50: read-out: EC50
Method in brief: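 Cells were seeded with 0.5 μg/mL doxycycline and held 68 h at 37 °C. Test compounds plus 3 μM co-corrector (final 0.1% DMSO) were then added for 20 h at 33 °C. Washed cells received HRP substrate, and luminescence was normalized between DMSO and 3 μM co-corrector controls.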

T1 sequence (P13569 with tags, fused parts or gaps DEL508-508): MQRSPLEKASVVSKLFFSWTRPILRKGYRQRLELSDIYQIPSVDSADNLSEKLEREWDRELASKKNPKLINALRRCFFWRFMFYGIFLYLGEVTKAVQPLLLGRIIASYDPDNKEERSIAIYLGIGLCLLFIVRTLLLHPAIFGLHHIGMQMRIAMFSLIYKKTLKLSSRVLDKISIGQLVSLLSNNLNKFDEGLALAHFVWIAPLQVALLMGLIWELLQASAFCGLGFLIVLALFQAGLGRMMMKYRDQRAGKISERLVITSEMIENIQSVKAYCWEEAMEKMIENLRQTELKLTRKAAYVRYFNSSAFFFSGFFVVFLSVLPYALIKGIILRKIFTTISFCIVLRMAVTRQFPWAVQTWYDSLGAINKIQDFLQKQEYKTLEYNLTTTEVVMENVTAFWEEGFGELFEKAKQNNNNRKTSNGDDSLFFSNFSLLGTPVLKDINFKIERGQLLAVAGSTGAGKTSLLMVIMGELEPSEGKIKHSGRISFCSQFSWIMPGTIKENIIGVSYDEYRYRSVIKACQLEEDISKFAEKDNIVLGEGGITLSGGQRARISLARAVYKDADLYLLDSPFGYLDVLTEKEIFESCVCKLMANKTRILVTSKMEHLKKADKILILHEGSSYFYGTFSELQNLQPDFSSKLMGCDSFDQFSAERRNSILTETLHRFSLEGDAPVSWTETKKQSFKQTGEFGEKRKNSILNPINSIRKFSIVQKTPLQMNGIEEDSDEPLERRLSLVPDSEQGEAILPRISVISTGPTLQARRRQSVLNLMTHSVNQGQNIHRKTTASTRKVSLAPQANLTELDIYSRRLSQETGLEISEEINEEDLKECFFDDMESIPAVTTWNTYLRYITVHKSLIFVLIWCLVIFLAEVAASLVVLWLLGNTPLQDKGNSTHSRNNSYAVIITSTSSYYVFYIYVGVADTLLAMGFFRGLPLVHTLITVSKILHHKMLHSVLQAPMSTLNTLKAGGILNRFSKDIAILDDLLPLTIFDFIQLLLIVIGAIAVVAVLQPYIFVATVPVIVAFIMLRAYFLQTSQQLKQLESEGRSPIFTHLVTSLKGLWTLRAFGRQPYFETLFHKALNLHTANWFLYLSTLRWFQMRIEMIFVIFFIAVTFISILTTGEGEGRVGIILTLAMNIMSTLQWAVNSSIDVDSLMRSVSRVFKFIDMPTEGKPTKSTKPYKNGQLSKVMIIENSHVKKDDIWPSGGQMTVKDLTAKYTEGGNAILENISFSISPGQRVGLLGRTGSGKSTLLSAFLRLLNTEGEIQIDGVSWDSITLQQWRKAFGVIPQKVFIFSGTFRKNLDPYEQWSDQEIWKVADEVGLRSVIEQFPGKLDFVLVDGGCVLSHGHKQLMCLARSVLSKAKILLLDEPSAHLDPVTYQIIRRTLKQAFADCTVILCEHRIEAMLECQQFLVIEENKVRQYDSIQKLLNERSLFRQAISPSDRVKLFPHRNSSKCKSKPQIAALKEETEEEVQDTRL

Row | SMILES | % Activation (ΔF508-CFTR [1]) [%] | EC50 (ΔF508-CFTR [1]) [nM] | % Activation (ΔF508-CFTR [2]) [%] | EC50 (ΔF508-CFTR [2]) [nM]
1 | CC1(COc2cc(C(=O)O)nc3c2c(C2CCC2)nn3-c2ccccc2)CC(F)(F)C1 [compound 476, 3-cyclobutyl-4-[(3,3-difluoro-1-methylcyclobutyl)methoxy]-1-phenyl-1H-pyrazolo[3,4-b]pyridine-6-carboxylic acid] | 121.45 | 513 | 297.8 | 386
2 | O=C(O)c1cc(OCCC2CC(F)(F)C2)c2c(C3CCC3)nn(-c3ccccc3)c2n1 [compound 477, 3-cyclobutyl-4-[2-(3,3-difluorocyclobutyl)ethoxy]-1-phenyl-1H-pyrazolo[3,4-b]pyridine-6-carboxylic acid] | 97.78 | 1020 | 266.3 | 501
3 | CC(C)N(CCOc1cc(C(=O)O)nc2c1c(C1CCC1)nn2-c1ccccc1)C1COC1 [compound 478, 3-cyclobutyl-4-{2-[(oxetan-3-yl)(propan-2-yl)amino]ethoxy}-1-phenyl-1H-pyrazolo[3,4-b]pyridine-6-carboxylic acid] | 125.2 | 828 | 292 | 409
4 | CC(=O)N1CCC(F)(COc2cc(C(=O)O)nc3c2c(C2CCC2)nn3-c2ccccc2)CC1 [compound 479, 4-[(1-acetyl-4-fluoropiperidin-4-yl)methoxy]-3-cyclobutyl-1-phenyl-1H-pyrazolo[3,4-b]pyridine-6-carboxylic acid] | 114.41 | 1850 | 317.77 | 1850
5 | O=C(O)c1cc(OC[C@@H]2CCCO2)c2c(C3CCC3)nn(-c3ccccc3)c2n1 [compound 480, 3-cyclobutyl-4-{[(2S)-oxolan-2-yl]methoxy}-1-phenyl-1H-pyrazolo[3,4-b]pyridine-6-carboxylic acid] | 115.15 | 862 | 270.4 | 364
6 | COC1CN(C(=O)COc2cc(C(=O)O)nc3c2c(C2CCC2)nn3-c2ccccc2)C1 [compound 481, 3-cyclobutyl-4-[2-(3-methoxyazetidin-1-yl)-2-oxoethoxy]-1-phenyl-1H-pyrazolo[3,4-b]pyridine-6-carboxylic acid] | 48.6 | 3340 | 210.3 | 3050
7 | CN1CCC([C@@H](F)COc2cc(C(=O)O)nc3c2c(C2CCC2)nn3-c2ccccc2)CC1 [compound 482, 3-cyclobutyl-4-[(2R)-2-fluoro-2-(1-methylpiperidin-4-yl)ethoxy]-1-phenyl-1H-pyrazolo[3,4-b]pyridine-6-carboxylic acid] | 144.75 | 1640 | 284.7 | 709
8 | O=C(O)c1cc(OCCOC2COC2)c2c(C3CCC3)nn(-c3ccccc3)c2n1 [compound 483, 3-cyclobutyl-4-{2-[(oxetan-3-yl)oxy]ethoxy}-1-phenyl-1H-pyrazolo[3,4-b]pyridine-6-carboxylic acid] | 142.4 | 897 | 267 | 367
9 | COCCC1(CCOc2cc(C(=O)O)nc3c2c(C2CCC2)nn3-c2ccccc2)CC1 [compound 484, 3-cyclobutyl-4-{2-[1-(2-methoxyethyl)cyclopropyl]ethoxyl}-1-phenyl-1H-pyrazolo[3,4-b]pyridine-6-carboxylic acid] | 113.5 | 1110 | 226.6 | 369
10 | COCCC1(COc2cc(C(=O)O)nc3c2c(C2CCC2)nn3-c2ccccc2)CC1 [compound 485, 3-cyclobutyl-4-{[1-(2-methoxyethyl)cyclopropyl]methoxyl}-1-phenyl-1H-pyrazolo[3,4-b]pyridine-6-carboxylic acid] | 107.5 | 1070 | 242.05 | 335
11 | O=C(O)c1cc(OCC2CCCC2(F)F)c2c(C3CCC3)nn(-c3ccccc3)c2n1 (stereo not drawn) [compound 486, 3-cyclobutyl-4-[(2,2-difluorocyclopentyl)methoxy]-1-phenyl-1H-pyrazolo[3,4-b]pyridine-6-carboxylic acid] | 127 | 603 | 299 | 335
12 | O=C(O)c1cc(OCCCN2CCOCC2)c2c(C3CCC3)nn(-c3ccccc3)c2n1 [compound 487, 3-cyclobutyl-4-[3-(morpholin-4-yl)propoxy]-1-phenyl-1H-pyrazolo[3,4-b]pyridine-6-carboxylic acid] | 142.7 | 835 | 316.5 | 491
13 | O=C(O)c1cc(OCCC2OCCCO2)c2c(C3CCC3)nn(-c3ccccc3)c2n1 [compound 488, 3-cyclobutyl-4-[2-(1,3-dioxan-2-yl)ethoxy]-1-phenyl-1H-pyrazolo[3,4-b]pyridine-6-carboxylic acid] | 95.49 | 755 | 261.9 | 462
14 | O=C(O)c1cc(OCCCF)c2c(C3CCC3)nn(-c3ccccc3)c2n1 [compound 489, 3-cyclobutyl-4-(3-fluoropropoxy)-1-phenyl-1H-pyrazolo[3,4-b]pyridine-6-carboxylic acid] | 106.4 | 1860 | 274.95 | 770
15 | CC1(COc2cc(C(=O)O)nc3c2c(C2CCC2)nn3-c2ccccc2)COC1 [compound 490, 3-cyclobutyl-4-[(3-methyloxetan-3-yl)methoxy]-1-phenyl-1H-pyrazolo[3,4-b]pyridine-6-carboxylic acid] | 144.95 | 400 | 311.1 | 296
16 | COCC(COC)Oc1cc(C(=O)O)nc2c1c(C1CCC1)nn2-c1ccccc1 [compound 491, 3-cyclobutyl-4-[(1,3-dimethoxypropan-2-yl)oxy]-1-phenyl-1H-pyrazolo[3,4-b]pyridine-6-carboxylic acid] | 82.97 | 2280 | 256.5 | 966
17 | CN(C)[C@H]1C[C@@H](Oc2cc(C(=O)O)nc3c2c(C2CCC2)nn3-c2ccccc2)C1 [compound 492, 3-cyclobutyl-4-{[cis-3-(dimethylamino)cyclobutyl]oxy}-1-phenyl-1H-pyrazolo[3,4-b]pyridine-6-carboxylic acid] | 84.2 | 2370 | 239.55 | 2510
18 | CC1OCC(Oc2cc(C(=O)O)nc3c2c(C2CCC2)nn3-c2ccccc2)CO1 (stereo not drawn) [compound 493, 3-cyclobutyl-4-[(2-methyl-1,3-dioxan-5-yl)oxy]-1-phenyl-1H-pyrazolo[3,4-b]pyridine-6-carboxylic acid] | 129.05 | 645 | 286.5 | 396
19 | CN1CCC[C@H](Oc2cc(C(=O)O)nc3c2c(C2CCC2)nn3-c2ccccc2)C1 [compound 494, 3-cyclobutyl-4-{[(3S)-1-methylpiperidin-3-yl]oxy}-1-phenyl-1H-pyrazolo[3,4-b]pyridine-6-carboxylic acid] | 65.56 | 3280 | 196.7 | 1160
20 | O=C(O)c1cc(OC2CC3(COC3)C2)c2c(C3CCC3)nn(-c3ccccc3)c2n1 [compound 495, 3-cyclobutyl-4-[(2-oxaspiro[3.3]heptan-6-yl)oxy]-1-phenyl-1H-pyrazolo[3,4-b]pyridine-6-carboxylic acid] | 95.96 | 1110 | 235.15 | 307
21 | CN1CCC[C@@H](Oc2cc(C(=O)O)nc3c2c(C2CCC2)nn3-c2ccccc2)C1 [compound 496, 3-cyclobutyl-4-{[(3R)-1-methylpiperidin-3-yl]oxy}-1-phenyl-1H-pyrazolo[3,4-b]pyridine-6-carboxylic acid] | 32.84 | 3340 | 145.5 | 2130
22 | CC(=O)N1CC(Oc2nn(-c3ccccc3)c3nc(C(=O)O)cc(-c4ccc(N5CCOCC5)cc4)c23)C1 [compound 497, 3-[(1-acetylazetidin-3-yl)oxy]-4-[4-(morpholin-4-yl)phenyl]-1-phenyl-1H-pyrazolo[3,4-b]pyridine-6-carboxylic acid] | 24.76 | > 10000 | 157.55 | 3340
23 | COC(C)C1CCN(c2cc(C(=O)O)nc3c2c(C2CCC2)nn3-c2ccccc2)CC1 (stereo not drawn) [compound 498, 3-cyclobutyl-4-[4-(1-methoxyethyl)piperidin-1-yl]-1-phenyl-1H-pyrazolo[3,4-b]pyridine-6-carboxylic acid] | 244.33 | 326 | 435.9 | 87.8
24 | COC(C)(C1CCN(c2cc(C(=O)O)nc3c2c(C2CCC2)nn3-c2ccccc2)CC1)C(F)(F)F (stereo not drawn) [compound 499, 3-cyclobutyl-1-phenyl-4-[4-(1,1,1-trifluoro-2-methoxypropan-2-yl)piperidin-1-yl]-1H-pyrazolo[3,4-b]pyridine-6-carboxylic acid] | 242.93 | 393 | 435.6 | 200
